Several values for one entry are separate records, joined by “and”; a condition that tells them apart may be missing. Identical values can stand only once.
How the values were obtained:
[1] = test system: activated human lymphocytes in MLR; assay: Cytokine secretion by activated human lymphocytes in mixed lymphocyte culture (ELISA); format: cell-based; conditions: 24 h culture supernatant
Protocol: In-vitro activation of human lymphocytes without and with C48/OFF1 treatment was carried out in a mixed lymphocyte culture (MLC). Human peripheral blood lymphocytes ([…]) (responder cells) were incubated with non-related Mitomycin C (40 μgr/ml) treated lymphocytes (2×10^6/ml) in RPMI-1640 medium containing 10% Fetal Calf serum and antibiotics. The cultures were incubated for 24 h in a humidified incubator at 37° C. with 5% CO2. Supernatants were collected and the concentration of the secreted cytokines were measured using an ELISA assay kit. The level of IL-2 R, and interferon (Th1 cytokines) and IL-6 and IL-10 (TH2 cytokines) were determined.

[2] = test system: zymosan induced arthritis (ZIA); assay: Zymosan induced arthritis (ZIA) in mice; format: in vivo; conditions: for Knee swelling Mean +/− SD (n = 10): C48 30 μg/per mouse daily i.p. from day 1 up to 10
Protocol: Animals: Female ICR mice were obtained from our institution's breeding facilities and were fed a standard diet and tap water ad libidum. Induction of zymosan-induced arthritis: A homogeneous suspension of 25 mg zymosan A (Saccharomyces cerevisiae), dissolves in 1 ml endotoxin-free saline, was obtained by boiling twice followed by sonic emulsification. Arthritis was induced by intrarticular injection of 0.5 mgr/20 l zymosan into each right and left knees. Assessment of ZIA: Mice were evaluated at 14 days post zymosan injections: Swelling was quantitated by measuring the thickness of the knees with a caliper, at 14th day post ZIA and compared to the thickness prior to ZIA. Histologic processing and analysis of knee joints: Knee joints were dissected, fixed, decalcified, dehydrated, and embedded in paraffin. Standard frontal section of 7 μm were prepared and stained with eosin-hematoxilin. Disease severity was assessed by calculation of arthritic index as follows: • Semiquantitative assessment of pathologic findings was performed using a grading system, consisting of five grades. Grade 0: normal synovia; grade 1: 1–5 cellular infiltrates in the microscopic field; grade 2: 6–20 cellular infiltrates; grade 3: 21–50 infiltrates; grade 4: more than […]. • Lymphocytic nodules: grade 1: 1–3 nodules per sectio; grade 2: 4–10 nodules; grade 3: 11–20 nodules; grade 4: more than 20 nodules. • Histiocytes grading: grade 1: 1–10 cell; grade 2: 11–20 cells; grade 3: 21–30 cells; grade 4: more than 30 cells. • Synovial thickness: grade 0: presence of 1 layer of synovial cells; grade 2: 2–3 layers; grade 3: 4–6 layers; grade 4: more than 6 layers. The presence of pannus was considered evidence of severe synovitis. Treatment with C48 (OFF1): Three groups of 10 mice each, were treated by daily intraperitoneal injections of either PBS (control group) or C48 (30 μg/per mouse). Statistical analysis: The significance of comparisons between means was assessed by Student's t-test. Effect of C48 administration on ZIA: Two group of mice (n=10 each) were treated by daily i.p. injections from day 1 up to 10 (10 days), or from day 3 to 10 (7 days) (C48 delayed) following intraarticular zymosan injections. Groups of ZIA mice (n=10) which received daily injections of PBS served as control.

[3] = test system: human bone marrow progenitor CFU-GM; assay: CFU-GM colony assay with normal human bone marrow mononuclear cells; format: cell-based; conditions: Cond. Med. 5% vol/vol, p43 (PLF) 1 μg/ml, GM-CSF 15 ng/ml; for number of CFU-GM colonies: scored after 14 days
Protocol: Bone marrow samples from 11 healthy volunteer donors were processed by density gradient separation using […] (Sigma diagnostics, St. Louis, Mo., USA) to obtain a purified population of mononuclear cells. Colony assays were performed in a plating medium containing final concentrations of 0.92% methyl cellulose (M-281 powder, 4,000 centipoise, Fisher Scientific Co., Fair Lawn, N.J., USA), rehydrated in Iscove's modified Dulbecco's medium containing 36 mM sodium bicarbonate (Gibco, Grand Island, N.Y., USA), 30% fetal bovine serum (FBS) (HyClone, Logan, Utah, USA) 0.292 mg/ml glutamine, 100 U/ml penicillin and 0.01 mg/ml streptomycin (Biological Industries, Beit Haemek, Israel). Growth factors used were […] GM-CSF Leucomax (Sandoz Pharma) and 5% vol/vol human phytohemagglutinin-M (Difco Laboratories, Detroit, Mich., USA)-induced conditioned medium (Cond. Med.) p43 (PLF) was added at concentration of 1 μg/mL and in neutralization experiments, p43 (PLF) was preincubated with 10× excess of CM-H-9 MoAb at 37° C. for 30 min and the complex added to the assay as above. The colony assay medium contained 10^5 mononuclear cells/ml and each 1 ml was plated into triplicate wells (333 μl/well) of a 24 well tissue culture plate (Greiner, Germany). Water was added to spaces between cells to maximize humidity during incubation of the cultures. The cultures were incubated at 37° C. in 5% CO2 and 55% relative humidity. Plates were scored after 14 days for colonies containing more than 50 cells.

C48/OFF 1: deletion construct encoding the unique C-terminal 48 aa of OFF1, expressed in E. coli as GST fusion protein (FPSPISPSPSCWHHYTTNRPQPQHHLLRPRRRKRPHSIPTPILIFRSP; left off: a dimerising Fc or GST)
IL-6 secreted in MLR [1]: 170,779 +/− 58,800 u/mL
IL-10 secreted in MLR [1]: 1125 +/− 332 u/mL
sIL-2R secreted in MLR [1]: 50 u/mL
γ Interferon secreted in MLR [1]: 46 u/mL
Knee swelling Mean +/− SD (n = 10) ([2]; 14 days post zymosan): 0.24 mm
Knee swelling Mean +/− SD (n = 10) ([2]; 14 days post zymosan, listed as C48): 0.24 +/− 0.56 mm
Knee swelling Mean +/− SD (n = 10), C48 delayed ([2]; C48 30 μg/per mouse daily i.p. from day 3 to 10, 14 days post zymosan, listed as C48): 0.33 mm and 0.33 +/− 0.57 mm
Arthritis Score Mean +/− SD (n = 10) ([2]; C48 daily i.p. from day 1 up to 10, mean grades of pathological findings): 1 +/− 0.83
Arthritis Score Mean +/− SD (n = 10), C48 delayed ([2]; C48 daily i.p. from day 3 to 10, mean grades of pathological findings): 0.9 +/− 0.83
severity of arthritis ([2]; C48 from day 1 to 10 or from day 3 to 10, compared with PBS): very mild

GM-CSF: GM-CSF Leucomax (Sandoz Pharma), growth factor used for comparison [reference compound]
MEDIAN number of CFU-GM colonies ([3]; 11 donors): 144
RANGE of number of CFU-GM colonies ([3]; 11 donors): 50–884
mean number of CFU-GM colonies (AVG.) ([3]; 11 donors): 276+/−257 and 276.2
number of CFU-GM colonies ([3]; Bone Marrow No. 1): 144
number of CFU-GM colonies ([3]; Bone Marrow No. 2): 396
number of CFU-GM colonies ([3]; Bone Marrow No. 3): 114
number of CFU-GM colonies ([3]; Bone Marrow No. 4): 66
number of CFU-GM colonies ([3]; Bone Marrow No. 5): 136
number of CFU-GM colonies ([3]; Bone Marrow No. 6): 250
number of CFU-GM colonies ([3]; Bone Marrow No. 7): 50
number of CFU-GM colonies ([3]; Bone Marrow No. 8): 74
number of CFU-GM colonies ([3]; Bone Marrow No. 9): 520
number of CFU-GM colonies ([3]; Bone Marrow No. 10): 884
number of CFU-GM colonies ([3]; Bone Marrow No. 11): 405
